Here are results for 13 compounds from ChEMBL document CHEMBL1201862, “PubChem BioAssay data set” (2004).

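Where inhibition never reached the appropriate level, the endpoint shown equals the highest concentration tested. Otherwise, values were interpolated linearly from a five-concentration, 48-hour dose response in 96-well plates. Here, GI50 denotes the concentration required for 50% inhibition of growth.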 Active and inactive are the calls of the source. No stated cut-off is given here; in the data, active = GI50 up to about 1.1 µM and inactive = higher.

Among the test systems are 786-0; CAKI-1; CCRF-CEM; HL-60; M14; RPMI-8226; RXF 393; SF-295; SK-MEL-5; SNB-19; SNB-75; SR; SW-620; TK-10; U-251; UO-31; SK-MEL-2.
Holding throughout (assay): inhibition of tumour cell growth, NCI panel, 48 h

`O=CN1CCN(C=S)CC1`: the GI50 with 786-0, with CAKI-1, in the test on CCRF-CEM, in the test on HL-60, in the test with M14 and in the test with RPMI-8226 was > 100 µM (inactive) in each case. The GI50 in the test on RXF 393 is > 100 µM (inactive); with SF-295, > 100 µM (inactive); in the test on SK-MEL-5, > 100 µM (inactive); in the test with SNB-19 it was > 100 µM (inactive); in the test with SNB-75, > 100 µM (inactive); in the test with SR, 54.5 µM (inactive). Moreover, the GI50 in the test with SW-620, in the test with TK-10, in the test on U-251 and in the test with UO-31 was > 100 µM (inactive) each time.

As for `Cc1ccccc1C1CC(c2ccccc2)=NO1` (stereo not given), the GI50 with 786-0, with CAKI-1, in the test on CCRF-CEM, in the test with HL-60, in the test on M14 and in the test on RPMI-8226 was > 100 µM (inactive) each time. Further, the GI50 in the test on SF-295, in the test with SK-MEL-2, with SK-MEL-5, in the test with SNB-19, in the test with SNB-75 and in the test on SR was > 100 µM (inactive) throughout. The GI50 in the test with SW-620, in the test on TK-10, in the test with U-251 and in the test on UO-31 was > 100 µM (inactive) each time.

In the case of `COC(=O)C1C(C(=O)OC)C2(OC)c3ccccc3-c3ccccc3C12` (stereo not given), the GI50 in the test with 786-0 is 75.2 µM (inactive); in the test with CAKI-1 it was 40.1 µM (inactive); in the test on CCRF-CEM, 24.7 µM (inactive); in the test on HL-60, 1.97 µM (inactive); in the test with M14, 34.2 µM (inactive); in the test on RPMI-8226 it was 9.89 µM (inactive). Moreover, the GI50 in the test with RXF 393 was 40.9 µM (inactive); in the test on SF-295 it was 38.2 µM (inactive); in the test on SK-MEL-2, 8.51 µM (inactive); in the test with SK-MEL-5, 18.7 µM (inactive); with SNB-19, 60 µM (inactive); with SNB-75, 38.4 µM (inactive). Moreover, the GI50 was 15.5 µM (inactive) in the test on SR; 48.1 µM (inactive) in the test on SW-620; 31.8 µM (inactive) in the test with TK-10; 42.9 µM (inactive) in the test with U-251; 31 µM (inactive) in the test on UO-31.

Regarding `COc1cc(-c2n[nH]cc2CCCC(=O)Nc2ccccc2[N+](=O)[O-])ccc1O`, the GI50 with 786-0 was > 100 µM (inactive); with CAKI-1, > 100 µM (inactive); with CCRF-CEM, 55.7 µM (inactive); in the test on HL-60, 35.9 µM (inactive); with M14, 50.9 µM (inactive); in the test with RPMI-8226 it was 40.2 µM (inactive). For the same compound, the GI50 in the test on SF-295 was > 100 µM (inactive); with SK-MEL-5, 61.4 µM (inactive); with SNB-75 it was 20.8 µM (inactive); with SR, 46.9 µM (inactive); in the test on SW-620 it was 59.3 µM (inactive); with TK-10, > 100 µM (inactive). The GI50 in the test with U-251 is 75.2 µM (inactive); in the test with UO-31, 79.8 µM (inactive).

Regarding `COC(=O)[C@@H]1C(=O)O[C@@H](c2cc(OC)c(OC)cc2OC)[C@@H]1C(=O)OC.COC(=O)[C@H]1C(=O)O[C@@H](c2cc(OC)c(OC)cc2OC)[C@@H]1C(=O)OC`, the GI50 in the test on 786-0, in the test on CAKI-1, in the test with CCRF-CEM, with HL-60, with M14 and with RPMI-8226 was > 100 µM (inactive) in each case. Moreover, the GI50 with RXF 393, with SF-295, in the test on SK-MEL-5, in the test on SNB-19, with SNB-75 and with SR was > 100 µM (inactive) each time. Besides, the GI50 in the test on SW-620, in the test on TK-10, in the test with U-251 and in the test with UO-31 was > 100 µM (inactive) each time.

As for `CS(=O)(=O)Oc1cccc(/C=N/N=C(\N)NO)c1`, the GI50 in the test with 786-0 is 19.3 µM (inactive); in the test on CAKI-1, 20.9 µM (inactive); in the test on CCRF-CEM it was 23.9 µM (inactive); with HL-60, 19 µM (inactive); in the test on M14 it was 27.1 µM (inactive); in the test with RXF 393, 37.4 µM (inactive). The GI50 was 49.3 µM (inactive) with SF-295; 34.8 µM (inactive) in the test on SK-MEL-2; 64.9 µM (inactive) in the test on SNB-19; 2.96 µM (inactive) in the test on SNB-75; 27.4 µM (inactive) with SR; 19.9 µM (inactive) in the test with SW-620. In addition, the GI50 is 14.7 µM (inactive) with TK-10, 27.7 µM (inactive) in the test with U-251 and 22.8 µM (inactive) in the test on UO-31.

`CN(C)CCn1c2c3ccccc3ccc2c2oc(=O)c3ccccc3c21`: the GI50 with 786-0 was 2.36 µM (inactive); with CAKI-1 it was 6.37 µM (inactive); in the test with CCRF-CEM it was 4.26 µM (inactive); in the test with HL-60, > 100 µM (inactive); in the test with M14, 6.12 µM (inactive); with RPMI-8226 it was 4.35 µM (inactive). The GI50 in the test with SF-295 was 9.04 µM (inactive); in the test with SK-MEL-2, 17.9 µM (inactive); with SNB-19, 10.3 µM (inactive); in the test on SNB-75 it was 2.3 µM (inactive); in the test on SR it was 2.78 µM (inactive); with SW-620 it was 4 µM (inactive). Also, the GI50 in the test with TK-10 was 12.6 µM (inactive); in the test on U-251, 7.46 µM (inactive); with UO-31 it was 1.61 µM (inactive).

In the case of `Cc1ccc2c(c1)SC(c1cc3c(cc1Br)OCO3)S2` (stereo not given), the GI50 with 786-0 is > 31.6 µM (inactive); in the test on CAKI-1, > 76 µM (inactive); with CCRF-CEM, > 31.6 µM (inactive); with HL-60, 22.6 µM (inactive); in the test with M14, > 31.6 µM (inactive); in the test on RPMI-8226 it was 18.5 µM (inactive). For the same compound, the GI50 is 12.3 µM (inactive) with RXF 393; > 31.6 µM (inactive) with SF-295; > 31.6 µM (inactive) in the test on SK-MEL-2; > 31.6 µM (inactive) in the test with SK-MEL-5; > 100 µM (inactive) with SNB-19; 0.516 µM (active) in the test with SNB-75. The GI50 was 23.3 µM (inactive) in the test on SR; 86.1 µM (inactive) with SW-620; > 31.6 µM (inactive) with TK-10; > 31.6 µM (inactive) with U-251; 19.7 µM (inactive) in the test with UO-31.

In the case of `Cc1cccc(C)c1NC(=O)CCc1nnc2s/c(=C\c3ccc(Cl)cc3)c(=O)n12`, the GI50 with 786-0 was 44 µM (inactive); in the test on CAKI-1, > 100 µM (inactive); in the test with CCRF-CEM it was > 100 µM (inactive); with HL-60, > 100 µM (inactive); with M14 it was > 100 µM (inactive); in the test with RPMI-8226, 61 µM (inactive). Also, the GI50 is 36.8 µM (inactive) with RXF 393; 70.6 µM (inactive) in the test with SF-295; 60.5 µM (inactive) in the test with SK-MEL-2; > 100 µM (inactive) in the test with SK-MEL-5; > 100 µM (inactive) in the test on SNB-19; 73.8 µM (inactive) in the test on SNB-75. Besides, the GI50 in the test with SR is > 100 µM (inactive); in the test on SW-620, 21.2 µM (inactive); in the test with TK-10, 42.3 µM (inactive); in the test on U-251, 83.9 µM (inactive); in the test with UO-31, > 100 µM (inactive).

On to `O=c1c2ccccc2[nH]c(=S)n1-c1ccc(Br)cc1`, for which the GI50 is 80.7 µM (inactive) in the test with 786-0; > 100 µM (inactive) in the test with HL-60; 40.1 µM (inactive) with RPMI-8226; > 100 µM (inactive) in the test with RXF 393; 66.8 µM (inactive) in the test with SF-295; > 100 µM (inactive) in the test with SK-MEL-2. Besides, the GI50 is > 100 µM (inactive) in the test on SNB-19; 30.7 µM (inactive) in the test on SNB-75; > 100 µM (inactive) in the test with SR; 87.1 µM (inactive) in the test on SW-620; > 100 µM (inactive) in the test on TK-10; > 100 µM (inactive) with U-251. For the same compound, the GI50 in the test with UO-31 is 92.5 µM (inactive).

Consider `O=[N+]([O-])C(=C1c2ccccc2-c2ccccc21)[N+](=O)[O-]`, for which the GI50 in the test with 786-0 is > 100 µM (inactive); in the test with CAKI-1 it was > 100 µM (inactive); in the test on CCRF-CEM it was 47.6 µM (inactive); with HL-60, 29.2 µM (inactive); in the test with M14, > 100 µM (inactive); with RPMI-8226 it was 44 µM (inactive). Further, the GI50 in the test with RXF 393 is > 100 µM (inactive); in the test on SF-295, > 10 µM (inactive); in the test on SK-MEL-2 it was > 100 µM (inactive); in the test with SNB-19 it was 97.5 µM (inactive); with SR it was > 100 µM (inactive); with SW-620 it was 64.7 µM (inactive). In addition, the GI50 is > 100 µM (inactive) in the test with TK-10, > 100 µM (inactive) in the test with U-251 and 52.4 µM (inactive) with UO-31.

For `N#CCCN(c1ccc(/C=C2\N=C(c3ccc(Cl)cc3)OC2=O)cc1)S(=O)(=O)c1ccccc1`, the GI50 with 786-0, with CAKI-1, with HL-60, in the test on M14, in the test on RPMI-8226 and in the test with SF-295 was > 100 µM (inactive) in each case. Further, the GI50 in the test on SK-MEL-2 is > 100 µM (inactive); in the test on SK-MEL-5, > 100 µM (inactive); in the test with SNB-19, > 100 µM (inactive); in the test on SNB-75, 76 µM (inactive); with SR, > 100 µM (inactive); with SW-620, > 100 µM (inactive). Also, the GI50 with TK-10, with U-251 and in the test on UO-31 was > 100 µM (inactive) each time.

As for `CC(C)CC(CNC(Cc1ccc(Cl)cc1)C(N)=O)NC(=O)C(Cc1c[nH]cn1)NC(=O)CNC(=O)C(NC(=O)C(C)NC(=O)C(Cc1c[nH]c2ccccc12)NC(=O)C(CCC(=O)O)NC(=O)C(N)Cc1ccccc1)C(C)C` (stereo not given), the GI50 in the test on 786-0, with CAKI-1, in the test with CCRF-CEM, in the test with HL-60, with RPMI-8226 and in the test on RXF 393 was > 133 µM (inactive) each time. The GI50 in the test on SF-295, in the test on SK-MEL-2, in the test with SNB-19, with SNB-75, in the test on SR and in the test on SW-620 was > 133 µM (inactive) throughout. The figures for the GI50 in the test with U-251 and with UO-31 were > 133 µM (inactive) and 8.17 µM (inactive), respectively.
